Assay: excess molar enthalpy (molar enthalpy of mixing); xn = mol fraction of the nth substance listed
Conditions: 308.15 K, 101 kPa, Liquid, Flow calorimetry

C1CCNCC1 [piperidine] + C1CCCCC1
Conditions	excess molar enthalpy [kcal/mol]
x2 = 0.101	0.0617
x2 = 0.201	0.114
x2 = 0.3	0.155
x2 = 0.4	0.186
x2 = 0.499	0.202
x2 = 0.601	0.202
x2 = 0.679	0.19
x2 = 0.801	0.152
x2 = 0.901	0.0935

C1CCNCC1 [piperidine] + C1CCOCC1
Conditions	excess molar enthalpy [kcal/mol]
x2 = 0.102	0.0249
x2 = 0.196	0.0435
x2 = 0.301	0.0581
x2 = 0.397	0.0667
x2 = 0.497	0.0698
x2 = 0.598	0.0679
x2 = 0.7	0.06
x2 = 0.801	0.0464
x2 = 0.893	0.0277

C1CCOCC1 [tetrahydropyran] + C1CCCCC1
Conditions	excess molar enthalpy [kcal/mol]
x2 = 0.101	0.0375
x2 = 0.2	0.0703
x2 = 0.3	0.0985
x2 = 0.4	0.117
x2 = 0.499	0.126
x2 = 0.606	0.124
x2 = 0.699	0.11
x2 = 0.8	0.0848
x2 = 0.9	0.0473
